Measured values: patent publication US20260356819A1, “OXOISOINDOLINYL-SUBSTITUTED […] DERIVATIVE AND USE THEREOF” (GLUETACS THERAPEUTICS (SHANGHAI) CO., LTD., priority 2023, published 2026)

Key:
Format in all cases: cell-based
Conditions in all cases: compounds at 50 nM and 500 nM
WEE1 = molecular target: T1, WEE1 (Homo sapiens, UniProt P30291+Q96SW2); experiment: Western blot degradation of WEE1 in hPBMCs (24 h)
T1 construct: The supernatant was aspirated as the extracted total cell protein; endogenous in cells; host or cells: human peripheral blood mononuclear cells (hPBMCs)
T1 sequence (P30291 whole entry): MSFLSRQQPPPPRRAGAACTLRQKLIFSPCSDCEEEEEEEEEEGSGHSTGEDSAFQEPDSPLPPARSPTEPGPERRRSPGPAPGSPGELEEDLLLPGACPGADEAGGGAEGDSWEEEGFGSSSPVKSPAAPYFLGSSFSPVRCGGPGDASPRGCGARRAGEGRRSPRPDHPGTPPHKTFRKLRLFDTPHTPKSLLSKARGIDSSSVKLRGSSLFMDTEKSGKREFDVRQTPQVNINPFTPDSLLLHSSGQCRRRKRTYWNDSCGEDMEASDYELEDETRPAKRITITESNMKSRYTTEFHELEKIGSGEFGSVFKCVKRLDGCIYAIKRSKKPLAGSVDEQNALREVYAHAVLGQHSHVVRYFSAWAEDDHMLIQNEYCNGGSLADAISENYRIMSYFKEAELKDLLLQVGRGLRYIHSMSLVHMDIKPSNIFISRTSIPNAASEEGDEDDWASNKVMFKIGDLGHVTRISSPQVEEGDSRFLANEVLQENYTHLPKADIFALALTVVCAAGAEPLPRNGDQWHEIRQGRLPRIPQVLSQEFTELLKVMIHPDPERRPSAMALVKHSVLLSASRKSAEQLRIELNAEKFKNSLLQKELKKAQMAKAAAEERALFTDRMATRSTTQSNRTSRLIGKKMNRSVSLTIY
T1 sequence (Q96SW2 whole entry): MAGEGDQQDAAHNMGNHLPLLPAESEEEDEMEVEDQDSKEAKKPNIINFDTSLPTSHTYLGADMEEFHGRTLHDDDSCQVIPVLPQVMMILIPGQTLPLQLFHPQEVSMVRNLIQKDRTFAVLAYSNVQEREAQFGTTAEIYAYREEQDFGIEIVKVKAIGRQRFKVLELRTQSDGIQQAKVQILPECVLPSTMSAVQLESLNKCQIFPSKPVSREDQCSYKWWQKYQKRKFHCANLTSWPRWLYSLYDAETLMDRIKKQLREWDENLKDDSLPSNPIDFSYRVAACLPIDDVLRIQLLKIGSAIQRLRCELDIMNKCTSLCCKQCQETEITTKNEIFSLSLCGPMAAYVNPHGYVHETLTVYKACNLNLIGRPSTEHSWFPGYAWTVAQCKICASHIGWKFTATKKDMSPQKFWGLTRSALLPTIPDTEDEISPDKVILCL
T1 sequence (Q16531 whole entry partner): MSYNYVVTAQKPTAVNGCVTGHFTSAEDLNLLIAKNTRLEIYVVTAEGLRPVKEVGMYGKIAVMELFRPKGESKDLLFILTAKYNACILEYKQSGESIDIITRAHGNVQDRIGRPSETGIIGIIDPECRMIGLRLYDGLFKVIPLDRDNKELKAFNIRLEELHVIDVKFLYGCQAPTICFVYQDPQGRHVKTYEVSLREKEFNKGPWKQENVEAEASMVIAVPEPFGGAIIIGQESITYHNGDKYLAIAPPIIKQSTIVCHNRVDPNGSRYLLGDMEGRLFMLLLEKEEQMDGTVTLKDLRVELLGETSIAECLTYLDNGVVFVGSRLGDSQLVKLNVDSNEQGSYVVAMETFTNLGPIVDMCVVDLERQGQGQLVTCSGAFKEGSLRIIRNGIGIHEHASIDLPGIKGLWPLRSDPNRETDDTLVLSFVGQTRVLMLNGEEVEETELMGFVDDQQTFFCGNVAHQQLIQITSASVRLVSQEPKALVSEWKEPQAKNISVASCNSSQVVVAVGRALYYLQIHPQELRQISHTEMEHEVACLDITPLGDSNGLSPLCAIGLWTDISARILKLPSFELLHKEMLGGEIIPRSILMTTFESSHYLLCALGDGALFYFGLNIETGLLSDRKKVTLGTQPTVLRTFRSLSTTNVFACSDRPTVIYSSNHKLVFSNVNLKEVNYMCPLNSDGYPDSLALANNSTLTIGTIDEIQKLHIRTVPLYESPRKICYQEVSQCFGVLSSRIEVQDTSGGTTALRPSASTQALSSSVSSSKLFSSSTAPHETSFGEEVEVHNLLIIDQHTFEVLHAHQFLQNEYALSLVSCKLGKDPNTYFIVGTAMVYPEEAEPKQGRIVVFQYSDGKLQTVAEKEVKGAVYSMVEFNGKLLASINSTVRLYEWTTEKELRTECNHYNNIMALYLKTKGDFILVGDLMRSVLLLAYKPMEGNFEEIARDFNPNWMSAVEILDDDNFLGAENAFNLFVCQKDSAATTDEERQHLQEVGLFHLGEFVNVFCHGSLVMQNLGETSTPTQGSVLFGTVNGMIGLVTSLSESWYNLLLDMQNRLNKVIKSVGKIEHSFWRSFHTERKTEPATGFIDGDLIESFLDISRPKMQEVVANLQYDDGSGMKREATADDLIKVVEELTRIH
How it was run: (§1)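 Thawed human PBMCs, 1×10^6 cells/mL; cpd 50 nM or 500 nM, 24 h; RIPA lysis, BCA, SDS-PAGE, NC transfer, immunoblot. Readout: grayscale/internal control → % remaining; degradation = 1 − remaining.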

IKZF3 = molecular target: T2, IKZF3 (Homo sapiens, UniProt Q96SW2+Q9UKT9); experiment: Western blot degradation of IKZF3 in hPBMCs (24 h)
T2 construct: The supernatant was aspirated as the extracted total cell protein; endogenous in cells; host or cells: human peripheral blood mononuclear cells (hPBMCs)
T2 sequence (Q9UKT9 whole entry): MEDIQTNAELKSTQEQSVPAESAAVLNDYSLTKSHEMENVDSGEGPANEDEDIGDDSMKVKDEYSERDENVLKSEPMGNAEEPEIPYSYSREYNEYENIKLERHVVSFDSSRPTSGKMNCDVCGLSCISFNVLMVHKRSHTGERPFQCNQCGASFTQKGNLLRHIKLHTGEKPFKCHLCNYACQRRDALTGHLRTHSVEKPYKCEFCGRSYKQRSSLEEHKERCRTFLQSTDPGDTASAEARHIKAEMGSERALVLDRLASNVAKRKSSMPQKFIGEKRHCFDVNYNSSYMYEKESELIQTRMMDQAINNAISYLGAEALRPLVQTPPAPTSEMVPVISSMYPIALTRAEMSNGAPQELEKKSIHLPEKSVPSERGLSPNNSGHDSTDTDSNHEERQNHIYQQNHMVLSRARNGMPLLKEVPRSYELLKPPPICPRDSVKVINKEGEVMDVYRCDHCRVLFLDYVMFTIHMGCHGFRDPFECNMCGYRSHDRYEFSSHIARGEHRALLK
T2 sequence (Q96SW2 whole entry): as the sequence (Q96SW2 whole entry) above
T2 sequence (Q16531 whole entry partner): as the sequence (Q16531 whole entry partner) above
How it was run: as §1

IKZF1 = molecular target: T3, IKZF1 (Homo sapiens, UniProt Q13422+Q96SW2); experiment: Western blot degradation of IKZF1 in hPBMCs (24 h)
T3 construct: The supernatant was aspirated as the extracted total cell protein; endogenous in cells; host or cells: human peripheral blood mononuclear cells (hPBMCs)
T3 sequence (Q13422 whole entry): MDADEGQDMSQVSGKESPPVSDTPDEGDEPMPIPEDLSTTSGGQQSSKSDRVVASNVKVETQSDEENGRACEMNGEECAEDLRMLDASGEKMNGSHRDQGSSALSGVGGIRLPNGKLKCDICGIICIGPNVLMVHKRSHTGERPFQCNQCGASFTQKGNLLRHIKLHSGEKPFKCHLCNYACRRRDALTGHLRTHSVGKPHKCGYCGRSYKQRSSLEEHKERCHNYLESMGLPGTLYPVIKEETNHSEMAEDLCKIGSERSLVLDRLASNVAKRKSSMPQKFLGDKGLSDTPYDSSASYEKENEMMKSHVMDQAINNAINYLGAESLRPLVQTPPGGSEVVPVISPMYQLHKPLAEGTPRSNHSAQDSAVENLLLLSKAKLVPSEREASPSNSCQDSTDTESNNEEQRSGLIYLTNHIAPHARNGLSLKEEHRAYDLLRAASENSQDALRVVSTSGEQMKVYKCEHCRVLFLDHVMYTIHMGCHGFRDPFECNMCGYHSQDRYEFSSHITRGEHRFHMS
T3 sequence (Q96SW2 whole entry): as the sequence (Q96SW2 whole entry) above
T3 sequence (Q16531 whole entry partner): as the sequence (Q16531 whole entry partner) above
How it was run: as §1

IKZF2 = molecular target: T4, IKZF2 (Homo sapiens, UniProt Q96SW2+Q9UKS7); experiment: Western blot degradation of IKZF2 in hPBMCs (24 h)
T4 construct: The supernatant was aspirated as the extracted total cell protein; endogenous in cells; host or cells: human peripheral blood mononuclear cells (hPBMCs)
T4 sequence (Q9UKS7 whole entry): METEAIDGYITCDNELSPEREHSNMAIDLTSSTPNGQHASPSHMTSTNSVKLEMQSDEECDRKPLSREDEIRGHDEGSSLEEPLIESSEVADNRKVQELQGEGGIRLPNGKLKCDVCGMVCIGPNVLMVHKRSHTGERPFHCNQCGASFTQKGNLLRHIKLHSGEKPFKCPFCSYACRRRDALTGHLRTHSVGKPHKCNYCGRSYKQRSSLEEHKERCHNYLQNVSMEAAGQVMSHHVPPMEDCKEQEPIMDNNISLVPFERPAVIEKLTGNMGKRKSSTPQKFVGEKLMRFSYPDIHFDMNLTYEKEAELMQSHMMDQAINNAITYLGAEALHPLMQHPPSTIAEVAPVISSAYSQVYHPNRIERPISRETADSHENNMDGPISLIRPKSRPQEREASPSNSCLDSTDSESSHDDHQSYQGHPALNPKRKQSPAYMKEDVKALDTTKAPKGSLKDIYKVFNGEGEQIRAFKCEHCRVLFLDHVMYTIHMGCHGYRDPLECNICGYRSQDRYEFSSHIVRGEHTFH
T4 sequence (Q96SW2 whole entry): as the sequence (Q96SW2 whole entry) above
T4 sequence (Q16531 whole entry partner): as the sequence (Q16531 whole entry partner) above
How it was run: as §1

CK1α = molecular target: T5, CK1α (Homo sapiens, UniProt P48729+Q96SW2); experiment: Western blot degradation of CK1α in hPBMCs (24 h)
T5 construct: The supernatant was aspirated as the extracted total cell protein; endogenous in cells; host or cells: human peripheral blood mononuclear cells (hPBMCs)
T5 sequence (P48729 whole entry): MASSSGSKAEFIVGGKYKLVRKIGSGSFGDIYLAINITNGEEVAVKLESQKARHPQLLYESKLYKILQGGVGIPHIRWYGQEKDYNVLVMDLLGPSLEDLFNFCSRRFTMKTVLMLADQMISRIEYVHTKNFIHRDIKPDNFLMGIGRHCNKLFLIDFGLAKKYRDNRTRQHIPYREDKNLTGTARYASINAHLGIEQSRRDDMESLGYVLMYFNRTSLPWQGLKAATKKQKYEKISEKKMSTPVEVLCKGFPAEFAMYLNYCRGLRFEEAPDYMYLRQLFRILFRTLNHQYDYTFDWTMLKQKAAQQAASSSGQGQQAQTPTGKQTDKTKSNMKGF
T5 sequence (Q96SW2 whole entry): as the sequence (Q96SW2 whole entry) above
T5 sequence (Q16531 whole entry partner): as the sequence (Q16531 whole entry partner) above
How it was run: as §1

GSPT1 = molecular target: T6, GSPT1 (Homo sapiens, UniProt P15170+Q96SW2); experiment: Western blot degradation of GSPT1 in hPBMCs (24 h)
T6 construct: The supernatant was aspirated as the extracted total cell protein; endogenous in cells; host or cells: human peripheral blood mononuclear cells (hPBMCs)
How it was run: as §1

Compound	WEE1 substrate protein remaining % (WEE1)	IKZF3 substrate protein remaining % (IKZF3)	IKZF1 substrate protein remaining % (IKZF1)	IKZF2 substrate protein remaining % (IKZF2)	CK1α substrate protein remaining % (CK1α)	GSPT1 substrate protein remaining % (GSPT1)
Cn1cc(C2=CCN(Cc3ccc4c(c3)C(=O)N(N3CCC(=O)NC3=O)C4=O)CC2)c2ccc(F)cc21 [GT-05276, 2-(2,4-dioxotetrahydropyrimidin-1(2H)-yl)-5-((4-(6-fluoro-1-methyl-1H-indol-3-yl)-3,6-dihydropyridin-1(2H)-yl)methyl)isoindoline-1,3-dione]	B (80%< substrate protein remaining % ≤100%)	A (0% ≤ substrate protein remaining % ≤80%)	B (80%< substrate protein remaining % ≤100%)	B (80%< substrate protein remaining % ≤100%)	B (80%< substrate protein remaining % ≤100%)	A (0% ≤ substrate protein remaining % ≤80%)
Cc1ccc(N2CCN(Cc3ccc4c(c3)C(=O)N(N3CCC(=O)NC3=O)C4=O)CC2)s1 [GT-05309, 2-(2,4-dioxotetrahydropyrimidin-1(2H)-yl)-5-((4-(5-methylthiophen-2-yl)piperazin-1-yl)methyl)isoindoline-1,3-dione]	B (80%< substrate protein remaining % ≤100%)	B (80%< substrate protein remaining % ≤100%)	B (80%< substrate protein remaining % ≤100%)	B (80%< substrate protein remaining % ≤100%)	B (80%< substrate protein remaining % ≤100%)	A (0% ≤ substrate protein remaining % ≤80%)
Cc1ccc(C2=CCN(Cc3ccc4c(c3)C(=O)N(N3CCC(=O)NC3=O)C4=O)CC2)s1 [GT-05310, 2-(2,4-dioxotetrahydropyrimidin-1(2H)-yl)-5-((4-(5-methylthiophen-2-yl)-3,6-dihydropyridin-1(2H)-yl)methyl)isoindoline-1,3-dione]	B (80%< substrate protein remaining % ≤100%)	B (80%< substrate protein remaining % ≤100%)	B (80%< substrate protein remaining % ≤100%)	B (80%< substrate protein remaining % ≤100%)	B (80%< substrate protein remaining % ≤100%)	A (0% ≤ substrate protein remaining % ≤80%)
O=C1CCN(N2C(=O)c3ccc(CN4CCN(c5ccsc5)CC4)cc3C2=O)C(=O)N1 [GT-05313, 2-(2,4-dioxotetrahydropyrimidin-1(2H)-yl)-5-((4-(thiophen-3-yl)piperazin-1-yl)methyl)isoindoline-1,3-dione]	B (80%< substrate protein remaining % ≤100%)	B (80%< substrate protein remaining % ≤100%)	B (80%< substrate protein remaining % ≤100%)	B (80%< substrate protein remaining % ≤100%)	B (80%< substrate protein remaining % ≤100%)	A (0% ≤ substrate protein remaining % ≤80%)
Cc1cscc1C1CCN(Cc2ccc3c(c2)C(=O)N(N2CCC(=O)NC2=O)C3=O)CC1 [GT-05314, 2-(2,4-dioxotetrahydropyrimidin-1(2H)-yl)-5-((4-(4-methylthiophen-3-yl)piperidin-1-yl)methyl)isoindoline-1,3-dione]	B (80%< substrate protein remaining % ≤100%)	B (80%< substrate protein remaining % ≤100%)	B (80%< substrate protein remaining % ≤100%)	B (80%< substrate protein remaining % ≤100%)	B (80%< substrate protein remaining % ≤100%)	A (0% ≤ substrate protein remaining % ≤80%)
